Experimental data as given in patent publication US10034886B2, “GLP-1 receptor modulators” (Celgene International II SÀRL, priority 2014, dated 2018).

The compounds below were run against T1, GLP-1R (Homo sapiens, UniProt P43220) (assay: EC20 GLP-1(9-36) PAM cAMP assay: dose response of compound in the presence of fixed concentration of GLP-1(9-36)). Settings: GLP-1R CRE-bla CHO-K1 cells, compound dose response with fixed concentration of GLP-1(9-36), read-out: EC20 GLP-1(9-36) PAM EC50.
T1 construct: host or cells: GLP-1R CRE-bla CHO-K1 cells
Type: cell-based
Procedure, shortened: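 GLP-1R CRE-bla CHO-K1 cells treated 30 min at 37 °C with 12-point compound dose response plus fixed EC20 GLP-1(9-36), with IBMX, in HBSS/HEPES/0.1% BSA pH 7.4. Total cAMP measured by luminescent detection against standard curve; EC50 and Emax from non-linear regression.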

T1 sequence (P43220 24-463): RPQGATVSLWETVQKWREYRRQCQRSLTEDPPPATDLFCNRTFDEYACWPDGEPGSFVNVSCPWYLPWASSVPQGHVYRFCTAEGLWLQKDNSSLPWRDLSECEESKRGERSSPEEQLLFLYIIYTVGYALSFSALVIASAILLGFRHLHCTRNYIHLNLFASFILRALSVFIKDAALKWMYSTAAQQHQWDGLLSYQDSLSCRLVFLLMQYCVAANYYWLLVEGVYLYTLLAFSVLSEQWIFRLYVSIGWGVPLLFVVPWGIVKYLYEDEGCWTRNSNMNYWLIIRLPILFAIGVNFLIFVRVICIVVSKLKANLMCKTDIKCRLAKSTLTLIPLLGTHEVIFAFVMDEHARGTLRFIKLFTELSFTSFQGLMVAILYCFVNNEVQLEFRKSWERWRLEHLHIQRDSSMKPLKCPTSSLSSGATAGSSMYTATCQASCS
T1 sequence (P01275 100-127 partner limits assumed): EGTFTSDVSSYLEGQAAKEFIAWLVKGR

Row | EC50 [µM] | SMILES
1 | 2.5 to 5 | CCc1ccc(CCc2cnc(-c3ccc(C[C@H](NC(=O)c4ccc(C(C)(C)C)s4)C(=O)N[C@H](C)C(=O)O)cc3)nc2)cc1 [Compound 1274]
2 | 5 to 10 | CCc1ccc(C2CN(c3cnc(-c4ccc(CC(NC(=O)c5ccc(C(C)(C)C)s5)C(=O)N5CC(C(=O)O)C5)cc4)nc3)C2)cc1 (stereo not shown) [Compound 1418]
3 | < 0.8 | C[C@@H](NC(=O)[C@H](Cc1ccc(-c2ncc(-c3ccc(-c4ccccc4)cc3F)cn2)cc1)NC(=O)c1ccc(C(C)(C)C)s1)C(=O)O [Compound 1318]
4 | < 0.8 | CC1(C)CCC(C2CCN(c3cnc(-c4ccc(C[C@H](NC(=O)c5ccc(C(C)(C)C)s5)C(=O)N5CC(C(=O)O)C5)cc4)nc3)CC2)CC1 [Compound 1424]
5 | < 0.8 | CC[C@H]1CC[C@H](c2ccc(-c3cnc(-c4ccc(C[C@H](NC(=O)c5ccc(C(C)(C)C)s5)C(=O)NCCC(=O)O)cc4)nc3)cc2)CC1 [Compound 1324]
6 | 0.8 to 2.5 | CCCc1ccc(C2CN(c3cnc(-c4ccc(CC(NC(=O)c5ccc(C(C)(C)C)s5)C(=O)N5CC(C(=O)O)C5)cc4)nc3)C2)cc1 (stereo not shown) [Compound 1417]
7 | 0.8 to 2.5 | CCCCCCCOc1ccc(-c2nnc(-c3ccc(C[C@@H](NC(=O)c4ccc(C(C)(C)C)cc4)C(=O)N4CC(C(=O)O)C4)cc3F)s2)cc1 [Compound 1553]
8 | 2.5 to 5 | CC(C)CCCOc1ccc(-c2cnc(-c3ccc(C[C@H](NC(=O)c4ccc(CC(C)C)s4)C(=O)N4CC(C(=O)O)C4)cc3)nc2)cc1 [Compound 1234]
9 | < 0.8 | CCC[C@H]1CC[C@H](C2CCN(c3cnc(-c4ccc(C[C@H](NC(=O)c5ccc(C(C)(C)C)s5)C(=O)N5CCCC[C@H]5C(=O)O)cc4)nc3)CC2)CC1 [Compound 1455]
10 | 0.8 to 2.5 | Cc1cc(F)ccc1-c1ccc(-c2cnc(-c3ccc(C[C@H](NC(=O)c4ccc(C(C)(C)C)s4)C(=O)N4CC(C(=O)O)C4)cc3)nc2)c(F)c1 [Compound 1206]
11 | 0.8 to 2.5 | CCC[C@H]1CC[C@H](C2CCN(c3cnc(-c4ccc(C[C@H](NC(=O)c5ccc(S(=O)(=O)C(C)C)cc5)C(=O)N5CC(C(=O)O)C5)cc4)nc3)CC2)CC1 [Compound 1523]
12 | < 0.8 | CCCc1ccc(C(=O)N[C@@H](Cc2ccc(-c3ncc(N4CCC([C@H]5CC[C@H](CCC)CC5)CC4)cn3)cc2)C(=O)N2CC(C(=O)O)C2)cc1 [Compound 1521]
13 | 0.8 to 2.5 | CCC[C@H]1CC[C@H](C2CCN(c3cnc(-c4ccc(C[C@H](NC(=O)c5ccc(C(C)(C)C)s5)C(=O)N[C@H](CC(C)C)C(=O)O)cc4)nc3)CC2)CC1 [Compound 1462]
14 | < 0.8 | CC[C@H]1CC[C@H](c2ccc(-c3cnc(-c4ccc(C[C@H](NC(=O)c5ccc(C(C)C)cc5)C(=O)O)cc4)nc3)cc2)CC1 [Compound 1387]
15 | 0.8 to 2.5 | CCc1ccc(C(=O)N[C@@H](Cc2ccc(-c3ncc(-c4ccc([C@H]5CC[C@H](CC)CC5)cc4)cn3)cc2)C(=O)N2CC(C(=O)O)C2)nc1 [Compound 1342]

Same assay, conditions: dose response of compound in presence of fixed concentration of GLP-1(9-36), GLP-1R CRE-bla CHO-K1 cells, read-out: EC20 GLP-1(9-36) PAM EC50

Row | EC50 [µM] | SMILES
16 | 5 to 10 | CCCCCCCOc1ccc(-c2cnc(-c3ccc(C[C@H](NC(=O)[C@H]4CC[C@H](C(C)(C)C)CC4)C(=O)N[C@H](C)C(=O)O)cc3)nc2)cc1 [Compound 833]
17 | 2.5 to 5 | CCCCCCCOc1ccc(-c2cnc(-c3ccc(C[C@H](NC(=O)c4cnn(C(C)(C)C)c4C)C(=O)N4CC[C@H](C(=O)O)C4)cc3)nc2)cc1 [Compound 861]
18 | < 0.8 | CC(C)(C)c1ccc(C(=O)N[C@@H](Cc2ccc(-c3ncc(-c4ccc([C@H]5CC[C@@H](C(F)(F)F)CC5)cc4)cn3)cc2)C(=O)N2CC(C(=O)O)C2)s1 [Compound 1185]
19 | < 0.8 | CCCCCCCOc1ccc(-c2cnc(-c3ccc(C[C@H](NC(=O)c4ccc(C(C)(C)C)s4)C(=O)NS(C)(=O)=O)cc3)nc2)cc1 [Compound 419]
20 | < 0.8 | CC(C)(C)c1ccc(C(=O)N[C@@H](Cc2ccc(-c3ncc(-c4ccc(C5CCCC5)cc4)cn3)cc2)C(=O)N2CC[C@H](C(=O)O)C2)s1 [Compound 1084]
21 | < 0.8 | CC[C@H]1CC[C@H](c2ccc(-c3cnc(-c4ccc(C[C@H](NC(=O)c5ccc(C(C)C)cc5)C(=O)N5CC(C(=O)O)C5)cc4)nc3)cc2)CC1 [Compound 1169]
22 | 0.8 to 2.5 | CCCCCCCOc1ccc(-c2cnc(-c3ccc(C[C@H](NC(=O)c4ccc(C(C)(C)C)c(OC)c4)C(=O)N4CCC[C@H]4C(=O)O)cc3)nc2)cc1 [Compound 1081]
23 | 0.8 to 2.5 | CCCCCCCOc1ccc(-c2cnc(-c3ccc(C[C@H](NC(=O)c4ccc(C(C)(C)C)s4)C(=O)O)cc3)nc2)nc1 [Compound 1062, (S)-2-(5-(tert-butyl)thiophene-2-carboxamido)-3-(4-(5-(5-(heptyloxy)pyridin-2-yl)pyrimidin-2-yl)phenyl)propanoic acid]
24 | 5 to 10 | C[C@@H](NC(=O)[C@H](Cc1ccc(-c2ncc(/C=C\CCCc3ccccc3)cn2)cc1)NC(=O)c1ccc(C(C)(C)C)s1)C(=O)O [Compound 1051]
25 | 0.8 to 2.5 | C[C@@H](NC(=O)[C@H](Cc1ccc(-c2ncc(-c3ccc(OCC(C)(C)C)cc3)cn2)cc1)NC(=O)c1ccc(C(C)(C)C)cc1)C(=O)O [Compound 726]
26 | < 0.8 | CCCCCCCOc1ccc(-c2cnc(-c3ccc(C[C@H](NC(=O)c4ccc(C(C)(C)C)s4)C(=O)N4CCC(C(=O)O)CC4)cc3)nc2)cc1 [Compound 448]
27 | 0.8 to 2.5 | CCCCCCCOc1ccc(-c2cnc(-c3ccc(C[C@H](NC(=O)c4ccc(C(C)(C)C)cc4)C(=O)N[C@@H](CC(=O)O)C(=O)N4CCOCC4)cc3)nc2)cc1 [Compound 507]
28 | < 0.8 | CC(C)(C)CCOc1ccc(-c2cnc(-c3ccc(C[C@H](NC(=O)c4ccc(C(C)(C)C)s4)C(=O)N4CC(C(=O)O)C4)cc3)nc2)cc1 [Compound 796]
29 | 2.5 to 5 | CCCCCCCOc1ccc(-c2cnc(-c3ccc(C[C@H](NC(=O)c4ccc(C(C)(C)C)s4)C(=O)N[C@H](C(=O)O)[C@@H](C)c4ccccc4)cc3)nc2)cc1 [Compound 909]
30 | 0.8 to 2.5 | C[C@@H](NC(=O)[C@H](Cc1ccc(-c2ncc(-c3ccc(OCCC4CCCCC4)cc3)cn2)cc1)NC(=O)c1ccc(C(C)(C)C)cc1)C(=O)O [Compound 794]
31 | 2.5 to 5 | CCCCCCCOc1ccc(-c2cnc(-c3ccc(C[C@H](NC(=O)c4ccc(CC(C)C)cc4)C(=O)N4CCC[C@H]4C(=O)O)cc3)nc2)cc1 [Compound 1076]
32 | 2.5 to 5 | CCCCOc1ccc(-c2cnc(-c3ccc(C[C@H](NC(=O)c4ccc(C(C)(C)C)s4)C(=O)N[C@H](C)C(=O)O)cc3)nc2)cc1F [Compound 1044]

Row | EC50 [µM] | SMILES
33 | 2.5 to 5 | CCCCCCCOc1ccc(-c2cnc(-c3ccc(C[C@H](NC(=O)c4ccc(C(C)(C)C)s4)C(=O)N4CCCC45CNC5)cc3)nc2)cc1 [Compound 1048]
34 | 2.5 to 5 | CCCCCC(=O)c1ccc(-c2cnc(-c3ccc(C[C@H](NC(=O)c4ccc(C(C)(C)C)cc4)C(=O)NCCC(=O)O)cc3)nc2)cc1 [Compound 690]
35 | < 0.8 | CCCCCCCOc1ccc(-c2cnc(-c3ccc(C[C@H](NC(=O)c4ccc(C(C)(C)C)cc4)C(=O)NC(C(=O)O)c4c(C)n[nH]c4C)cc3)nc2)cc1 (stereo partly shown) [Compound 549]
36 | 0.8 to 2.5 | Cc1cc(C)n(-c2ccc(-c3cnc(-c4ccc(C[C@H](NC(=O)c5ccc(C(C)(C)C)s5)C(=O)N[C@H](C)C(=O)O)cc4)nc3)cc2)n1 [Compound 1006]
37 | < 0.8 | CCCCCCCOc1ccc(-c2cnc(-c3ccc(C[C@H](NC(=O)c4ccc(C(C)(C)C)s4)C(=O)NC(Cc4ccccc4)C(=O)O)cc3)nc2)cc1 (stereo partly shown) [Compound 611]
38 | 5 to 10 | CC(C)(C)c1ccc(C(=O)N[C@@H](Cc2ccc(-c3ncc(N4CCC(C(C)(C)C)CC4)cn3)cc2)C(=O)NCCC(=O)O)cc1 [Compound 674]
39 | < 0.8 | CCCCCCCOc1ccc(-c2cnc(-c3ccc(C[C@H](NC(=O)c4ccc(C(C)(C)C)s4)C(=O)N[C@H](C(=O)O)[C@H](C)O)cc3)nc2)cc1 [Compound 646]
40 | 0.8 to 2.5 | CCCCCCCOc1ccc(-c2cnc(-c3ccc(C[C@H](NC(=O)c4ccc(CC)cc4)C(=O)N4CC[C@H](C(=O)O)C4)cc3)nc2)cc1 [Compound 855]
41 | 0.8 to 2.5 | CCCCCCCOc1ccc(-c2cnc(-c3ccc(C[C@H](NC(=O)c4ccc(C(C)(C)C)cc4)C(=O)N[C@@H](CC(=O)NCC(=O)O)C(=O)O)cc3)nc2)cc1 [Compound 480]
42 | < 0.8 | CCCCCCCOc1ccc(-c2cnc(-c3ccc(C[C@H](NC(=O)c4ccc(C(C)(C)C)s4)C(=O)N4CC(F)(C(=O)O)C4)cc3)nc2)cc1 [Compound 878]
43 | < 0.8 | CCCCCCCOc1ccc(-c2cnc(-c3ccc(C[C@H](NC(=O)c4ccc(C(C)(C)C)s4)C(=O)NS(=O)(=O)CC(=O)OC)cc3)nc2)cc1 [Compound 422, methyl (S)-2-(N-(2-(5-(tert-butyl)thiophene-2-carboxamido)-3-(4-(5-(4-(heptyloxy)phenyl)pyrimidin-2-yl)phenyl)propanoyl)sulfamoyl)acetate]
44 | 2.5 to 5 | CCCCCCCOc1ccc(-c2cnc(-c3ccc(C[C@H](NC(=O)CN(C)C)C(=O)N[C@H](C)C(=O)O)cc3)nc2)cc1 [Compound 826]
45 | 0.8 to 2.5 | CCCCCCCOc1ccc(-c2cnc(-c3ccc(C[C@H](NC(=O)c4ccc(C(C)(C)C)s4)C(=O)N4CC5(CC(C(=O)O)C5)C4)cc3)nc2)cc1 [Compound 877]
46 | 0.8 to 2.5 | CCCCCCCOc1ccc(-c2cnc(-c3ccc(C[C@H](NC(=O)c4ccc(C(C)(C)C)s4)C(=O)NC(C(=O)O)C(O)c4cccs4)cc3)nc2)cc1 (stereo partly shown) [Compound 888]
47 | 2.5 to 5 | CCCCCCCOc1ccc(-c2cnc(-c3ccc(C[C@H](NC(=O)c4ccc(C(C)(C)C)cc4)C(=O)N[C@@H](CC(=O)Nc4nnn[nH]4)C(=O)O)cc3)nc2)cc1 [Compound 510]
48 | 0.8 to 2.5 | CCCCCCCOc1ccc(-c2cnc(-c3ccc(C[C@H](NC(=O)c4ccc(C(C)(C)C)s4)C(=O)N[C@@H](CC(=O)NCC(N)=O)C(=O)O)cc3)nc2)cc1 [Compound 518]
49 | 0.8 to 2.5 | CCCCCCCOc1ccc(-c2cnc(-c3ccc(C[C@H](NC(=O)c4ccc(C(C)(C)C)s4)C(=O)NC4(C(=O)O)CC4)cc3)nc2)cc1 [Compound 604]
